These results are taken from publication PMC5218480 (PLoS ONE, 2017).

The subject of this test is MV-4-11 cells. Nature of the test: Gene expression microarray analysis (Affymetrix PrimeView) and GSEA. Conditions: ProbeSet 11728271_at; LIST B. It counts as cell-based, human. Details: RFU PODN (11730768_x_at) / Fold change /veh PODN (11730768_x_at) / RFU LINC00158 (11744669_a_at) / Fold change /veh LINC00158 (11744669_a_at) / RFU DUSP10 (11751237_a_at) / Fold change /veh DUSP10 (11751237_a_at) / RFU ID3 (11757404_x_at) / Fold change /veh ID3 (11757404_x_at) / RFU PLEKHG5 (11737974_s_at) / Fold change /veh PLEKHG5 (11737974_s_at) / RFU LRRC4B (11730491_at) / Fold change /veh LRRC4B (11730491_at) / RFU GIMAP4 (11747438_a_at) / Fold change /veh GIMAP4 (11747438_a_at) / RFU KRT8 (11758183_x_at) / Fold change /veh KRT8 (11758183_x_at) / RFU CNN1 (11734310_a_at) / Fold change /veh CNN1 (11734310_a_at) / RFU VPS37D (11726825_at) / Fold change /veh VPS37D (11726825_at) / RFU C10orf10 (11716522_x_at) / Fold change /veh C10orf10 (11716522_x_at) / RFU KIR2DL2 /// KIR2DL4 /// KIR2DL5A /// KIR2DL5B /// KIR2DS1 /// KIR2DS2 /// KIR2DS3 /// KIR2DS4 /// KIR3DL3 /// KIR3DL3 /// KIR3DS1 (11738374_at) / Fold change /veh KIR2DL2 /// KIR2DL4 /// KIR2DL5A /// KIR2DL5B /// KIR2DS1 /// KIR2DS2 /// KIR2DS3 /// KIR2DS4 /// KIR3DL3 /// KIR3DL3 /// KIR3DS1 (11738374_at) / RFU C1QL1 (11718748_at) / Fold change /veh C1QL1 (11718748_at) / RFU TMPRSS4 (11747572_a_at) / Fold change /veh TMPRSS4 (11747572_a_at) / RFU HAMP (11756126_x_at) / Fold change /veh HAMP (11756126_x_at) / RFU RNFT2 (11725882_a_at) / Fold change /veh RNFT2 (11725882_a_at) / RFU NR4A2 (11747474_a_at) / Fold change /veh NR4A2 (11747474_a_at) / RFU ABCC12 (11746883_a_at) / Fold change /veh ABCC12 (11746883_a_at) / RFU TMEM136 (11760407_x_at) / Fold change /veh TMEM136 (11760407_x_at) / RFU CLDN22 /// WWC2 (11732394_at) / Fold change /veh CLDN22 /// WWC2 (11732394_at) / RFU HLA-DPB1 (11760878_x_at) / Fold change /veh HLA-DPB1 (11760878_x_at) / RFU SPINT1 (11716480_a_at) / Fold change /veh SPINT1 (11716480_a_at) / RFU GAP43 (11754022_s_at) / Fold change /veh GAP43 (11754022_s_at) / RFU A4GNT (11735810_at) / Fold change /veh A4GNT (11735810_at) / RFU PRB3 (11715151_x_at) / Fold change /veh PRB3 (11715151_x_at) / RFU TUBB4B (11761932_at) / Fold change /veh TUBB4B (11761932_at) / RFU CAPN14 (11732068_a_at) / Fold change /veh CAPN14 (11732068_a_at) / RFU TMCC2 (11721928_a_at) / Fold change /veh TMCC2 (11721928_a_at) / RFU IRGQ (11745062_a_at) / Fold change /veh IRGQ (11745062_a_at) / RFU FAM174B (11720279_a_at) / Fold change /veh FAM174B (11720279_a_at) / RFU TMPRSS4 (11748680_a_at) / Fold change /veh TMPRSS4 (11748680_a_at) / RFU FAM212B (11763350_a_at) / Fold change /veh FAM212B (11763350_a_at) / RFU PLEKHG5 (11743358_a_at) / Fold change /veh PLEKHG5 (11743358_a_at) / RFU ZSCAN30 (11745921_a_at) / Fold change /veh ZSCAN30 (11745921_a_at) / RFU CMKLR1 (11741424_a_at) / Fold change /veh CMKLR1 (11741424_a_at) / RFU LOC101060620 /// MAPK8IP1 (11723275_at) / Fold change /veh LOC101060620 /// MAPK8IP1 (11723275_at) / RFU SPTSSB (11747773_x_at) / Fold change /veh SPTSSB (11747773_x_at) / RFU PRSS12 (11739890_at) / Fold change /veh PRSS12 (11739890_at) / RFU BIN1 (11741810_x_at) / Fold change /veh BIN1 (11741810_x_at) / RFU WNT11 (11732464_a_at) / Fold change /veh WNT11 (11732464_a_at) / RFU C10orf10 (11716521_a_at) / Fold change /veh C10orf10 (11716521_a_at) / RFU C5orf56 (11738089_at) / Fold change /veh C5orf56 (11738089_at) / RFU CYB561 (11721691_x_at) / Fold change /veh CYB561 (11721691_x_at) / RFU ANKRD19P (11752326_a_at) / Fold change /veh ANKRD19P (11752326_a_at) / RFU OR2T12 /// OR2T33 /// OR2T8 (11738714_s_at) / Fold change /veh OR2T12 /// OR2T33 /// OR2T8 (11738714_s_at) / RFU VCAN (11748164_a_at) / Fold change /veh VCAN (11748164_a_at) / RFU JSRP1 (11732532_at) / Fold change /veh JSRP1 (11732532_at) / RFU KRTAP10-11 (11738290_x_at) / Fold change /veh KRTAP10-11 (11738290_x_at) / RFU MYO3A (11730013_a_at) / Fold change /veh MYO3A (11730013_a_at) / RFU EBF3 (11725865_a_at) / Fold change /veh EBF3 (11725865_a_at) / RFU CAMK2N1 (11719241_x_at) / Fold change /veh CAMK2N1 (11719241_x_at) / RFU C5orf56 (11738088_a_at) / Fold change /veh C5orf56 (11738088_a_at) / RFU OLFML3 (11715873_a_at) / Fold change /veh OLFML3 (11715873_a_at) / RFU LOC100653217 /// NTM (11731650_a_at) / Fold change /veh LOC100653217 /// NTM (11731650_a_at) / RFU MAPK11 (11762145_a_at) / Fold change /veh MAPK11 (11762145_a_at) / RFU FIZ1 (11724087_x_at) / Fold change /veh FIZ1 (11724087_x_at) / RFU OASL (11726364_x_at) / Fold change /veh OASL (11726364_x_at) / RFU SOX15 (11748057_x_at) / Fold change /veh SOX15 (11748057_x_at) / RFU CD79A (11719716_a_at) / Fold change /veh CD79A (11719716_a_at) / RFU HIST1H1D (11736915_at) / Fold change /veh HIST1H1D (11736915_at) / RFU CASKIN2 (11723855_a_at) / Fold change /veh CASKIN2 (11723855_a_at) / RFU LOC730098 (11760151_x_at) / Fold change /veh LOC730098 (11760151_x_at) / RFU OR4N2 (11742367_at) / Fold change /veh OR4N2 (11742367_at) / RFU PRRT2 (11749266_a_at) / Fold change /veh PRRT2 (11749266_a_at) / RFU SNX32 (11753110_a_at) / Fold change /veh SNX32 (11753110_a_at) / RFU CDHR5 (11726645_a_at) / Fold change /veh CDHR5 (11726645_a_at) / RFU RCAN1 (11760418_a_at) / Fold change /veh RCAN1 (11760418_a_at) / RFU FAM167A (11723789_a_at) / Fold change /veh FAM167A (11723789_a_at) / RFU FAM26E (11764081_at) / Fold change /veh FAM26E (11764081_at) / RFU ISYNA1 (11749810_s_at) / Fold change /veh ISYNA1 (11749810_s_at) / RFU ACY1 (11761880_at) / Fold change /veh ACY1 (11761880_at) / RFU 11764098_at / Fold change /veh 11764098_at / RFU SAMD14 (11745864_x_at) / Fold change /veh SAMD14 (11745864_x_at) / RFU NPB (11741838_a_at) / Fold change /veh NPB (11741838_a_at) / RFU TMPRSS6 (11731388_a_at) / Fold change /veh TMPRSS6 (11731388_a_at) / RFU KRTAP10-2 (11738614_at) / Fold change /veh KRTAP10-2 (11738614_at) / RFU ARHGAP8 /// PRR5-ARHGAP8 (11727945_x_at) / Fold change /veh ARHGAP8 /// PRR5-ARHGAP8 (11727945_x_at) / RFU KRTAP5-7 /// NADSYN1 (11734609_at) / Fold change /veh KRTAP5-7 /// NADSYN1 (11734609_at) / RFU RASL12 (11751679_a_at) / Fold change /veh RASL12 (11751679_a_at) / RFU CDKN2B (11736163_a_at) / Fold change /veh CDKN2B (11736163_a_at) / RFU PRF1 (11729649_at) / Fold change /veh PRF1 (11729649_at) / RFU, ZNF638 /// ZNF638-IT1 / Fold change vs veh, ZNF638 /// ZNF638-IT1 / RFU, PANK3 / Fold change vs veh, PANK3 / RFU, SH3YL1 / Fold change vs veh, SH3YL1 / RFU, ZEB2 / Fold change vs veh, ZEB2 / RFU, NRIP1 / Fold change vs veh, NRIP1 / RFU, PTTG1IP / Fold change vs veh, PTTG1IP / RFU, CAPN2 / Fold change vs veh, CAPN2 / RFU, MED14 / Fold change vs veh, MED14 / RFU, SNORA58 / Fold change vs veh, SNORA58 / RFU, C1orf63 / Fold change vs veh, C1orf63 / RFU, LRRFIP1 / Fold change vs veh, LRRFIP1 / RFU, NDUFAF7 / Fold change vs veh, NDUFAF7 / RFU, SLC12A2 / Fold change vs veh, SLC12A2 / RFU, IBTK / Fold change vs veh, IBTK / RFU, ESF1 / Fold change vs veh, ESF1 / Fold change vs veh, TMEM50B / RFU, TAOK1 / Fold change vs veh, TAOK1 / RFU, ACBD3 / Fold change vs veh, ACBD3 / RFU, TMA16 / Fold change vs veh, TMA16 / RFU, RWDD3 / Fold change vs veh, RWDD3 / RFU, BCAT1 / Fold change vs veh, BCAT1 / RFU, EDEM3 / Fold change vs veh, EDEM3 / RFU, TMEM33 / Fold change vs veh, TMEM33 / RFU, WDR75 / Fold change vs veh, WDR75 / RFU, AHCTF1 / Fold change vs veh, AHCTF1 / RFU, TFRC / Fold change vs veh, TFRC / RFU, ZDHHC17 / Fold change vs veh, ZDHHC17 / RFU, NOM1 / Fold change vs veh, NOM1 / RFU, ARL8B / Fold change vs veh, ARL8B / RFU, ZBTB11 / Fold change vs veh, ZBTB11 / RFU, TAMM41 / Fold change vs veh, TAMM41 / RFU, KIAA1704 /// LOC100996395 / Fold change vs veh, KIAA1704 /// LOC100996395 / RFU, ING1 / Fold change vs veh, ING1 / RFU, TRMT61B / Fold change vs veh, TRMT61B / RFU, FUBP3 / Fold change vs veh, FUBP3 / RFU, TP53 / Fold change vs veh, TP53 / RFU, TNKS2 / Fold change vs veh, TNKS2 / RFU, ZFP14 / Fold change vs veh, ZFP14 / RFU, ACTR2 / Fold change vs veh, ACTR2 / RFU, PPP3R1 / Fold change vs veh, PPP3R1 / RFU, PIK3R1 / Fold change vs veh, PIK3R1 / RFU, HNRNPA1 / Fold change vs veh, HNRNPA1 / RFU, RNF170 / Fold change vs veh, RNF170 / RFU, ZNF28 / Fold change vs veh, ZNF28 / RFU, RNGTT / Fold change vs veh, RNGTT / RFU, OGT / Fold change vs veh, OGT / RFU, BRD1 / Fold change vs veh, BRD1 / RFU, MARS / Fold change vs veh, MARS / RFU, ZNF655 / Fold change vs veh, ZNF655 / RFU, FAHD1 / Fold change vs veh, FAHD1 / RFU, BDP1 / Fold change vs veh, BDP1 / RFU, LRRCC1 / Fold change vs veh, LRRCC1 / RFU, ARID1A / Fold change vs veh, ARID1A / RFU, ZNF146 / Fold change vs veh, ZNF146 / RFU, ZNF330 / Fold change vs veh, ZNF330 / RFU, GPN3 / Fold change vs veh, GPN3 / RFU, C9orf123 / Fold change vs veh, C9orf123 / RFU, N4BP2L2 / Fold change vs veh, N4BP2L2 / RFU, ARFIP1 / Fold change vs veh, ARFIP1 / RFU, FAM179B / Fold change vs veh, FAM179B / RFU, BCL10 / Fold change vs veh, BCL10 / RFU, UHRF1BP1L / Fold change vs veh, UHRF1BP1L / RFU, BET1 / Fold change vs veh, BET1 / RFU, CNOT2 / Fold change vs veh, CNOT2 / RFU, ZNF268 / Fold change vs veh, ZNF268 / Fold change vs veh, ZNF507 / RFU, DGCR2 / Fold change vs veh, DGCR2 / RFU, WDSUB1 / Fold change vs veh, WDSUB1 / Fold change vs veh, HSP90B1 /// MIR3652 / RFU, ADSS / Fold change vs veh, ADSS / RFU, GK / Fold change vs veh, GK / RFU, ZNF148 / Fold change vs veh, ZNF148 / RFU, TAF9 / Fold change vs veh, TAF9 / RFU, SLC1A5 / Fold change vs veh, SLC1A5 / RFU, SLMO2 / Fold change vs veh, SLMO2 / RFU, ABCC4 / Fold change vs veh, ABCC4 / RFU, LOC101060439 /// RAP1B / Fold change vs veh, LOC101060439 /// RAP1B / RFU, RFX7 / Fold change vs veh, RFX7 / RFU, GTPBP10 / Fold change vs veh, GTPBP10 / RFU, CNEP1R1 / Fold change vs veh, CNEP1R1 / RFU, BIVM-ERCC5 /// ERCC5 / Fold change vs veh, BIVM-ERCC5 /// ERCC5 / RFU, ILF3 / Fold change vs veh, ILF3 / RFU 11762660_at / Fold change /veh 11762660_at / RFU VCAN (11757783_s_at) / Fold change /veh VCAN (11757783_s_at) / RFU DDX43 (11728927_at) / Fold change /veh DDX43 (11728927_at) / RFU KRT8 (11758188_x_at) / Fold change /veh KRT8 (11758188_x_at) / RFU NKD1 (11759106_at) / Fold change /veh NKD1 (11759106_at) / RFU SRD5A1 (11742802_a_at) / Fold change /veh SRD5A1 (11742802_a_at) / RFU TPSAB1 /// TPSB2 (11721975_s_at) / Fold change /veh TPSAB1 /// TPSB2 (11721975_s_at) / RFU GSTM3 (11746129_a_at) / Fold change /veh GSTM3 (11746129_a_at) / RFU IL23R (11737362_x_at) / Fold change /veh IL23R (11737362_x_at) / RFU TMEM51 (11727254_a_at) / Fold change /veh TMEM51 (11727254_a_at) / RFU PIWIL2 (11732686_x_at) / Fold change /veh PIWIL2 (11732686_x_at) / RFU ORM1 (11744905_x_at) / Fold change /veh ORM1 (11744905_x_at) / RFU CCDC152 (11743942_at) / Fold change /veh CCDC152 (11743942_at) / RFU ECM1 (11717891_a_at) / Fold change /veh ECM1 (11717891_a_at) / RFU IL23R (11748794_a_at) / Fold change /veh IL23R (11748794_a_at) / RFU TNFAIP8L3 (11732012_x_at) / Fold change /veh TNFAIP8L3 (11732012_x_at) / RFU MBOAT4 (11741988_at) / Fold change /veh MBOAT4 (11741988_at) / RFU 11764193_at / Fold change /veh 11764193_at / RFU TMEM53 (11763286_at) / Fold change /veh TMEM53 (11763286_at) / RFU MAGEB2 (11727129_at) / Fold change /veh MAGEB2 (11727129_at) / RFU TMEM200A (11744735_a_at) / Fold change /veh TMEM200A (11744735_a_at) / RFU CCDC152 (11751479_a_at) / Fold change /veh CCDC152 (11751479_a_at) / RFU FAM211A (11726209_a_at) / Fold change /veh FAM211A (11726209_a_at) / RFU RGS16 (11746705_a_at) / Fold change /veh RGS16 (11746705_a_at) / RFU VCAN (11755009_s_at) / Fold change /veh VCAN (11755009_s_at) / RFU RHOB (11743442_s_at) / Fold change /veh RHOB (11743442_s_at) / RFU RGS16 (11720943_a_at) / Fold change /veh RGS16 (11720943_a_at) / RFU RGS16 (11720944_at) / Fold change /veh RGS16 (11720944_at) / RFU, VPS4B / Fold change vs veh, VPS4B / RFU, CREB1 / Fold change vs veh, CREB1 / RFU, DNAJC13 / Fold change vs veh, DNAJC13 / RFU, GNAQ / Fold change vs veh, GNAQ / RFU, CDK5R1 / Fold change vs veh, CDK5R1 / RFU, ZRANB3 / Fold change vs veh, ZRANB3 / RFU, CUL4A / Fold change vs veh, CUL4A / RFU, CCNY / Fold change vs veh, CCNY / RFU, UFL1 / Fold change vs veh, UFL1 / RFU, COG3 / Fold change vs veh, COG3 / RFU, DIAPH2 / Fold change vs veh, DIAPH2 / RFU, SKA2 / Fold change vs veh, SKA2 / RFU, AFF3 / Fold change vs veh, AFF3 / RFU, LMF1 / Fold change vs veh, LMF1 / RFU, IPO11 / Fold change vs veh, IPO11 / RFU, DFFB / Fold change vs veh, DFFB / RFU, FOXP1 / Fold change vs veh, FOXP1 / RFU, CARD8 / Fold change vs veh, CARD8 / RFU, STRN3 / Fold change vs veh, STRN3 / RFU, ADK / Fold change vs veh, ADK / RFU, RASSF2 / Fold change vs veh, RASSF2 / RFU, WIPF1 / Fold change vs veh, WIPF1 / RFU, LARP1B / Fold change vs veh, LARP1B / RFU, RASA1 / Fold change vs veh, RASA1 / RFU, RB1 / Fold change vs veh, RB1 / RFU, PPFIA1 / Fold change vs veh, PPFIA1 / RFU, MAT2A / Fold change vs veh, MAT2A / RFU, CCT5 / Fold change vs veh, CCT5 / RFU, WDR92 / Fold change vs veh, WDR92 / RFU, CUX1 / Fold change vs veh, CUX1 / RFU, TTC7A / Fold change vs veh, TTC7A / RFU, TMEM135 / Fold change vs veh, TMEM135 / RFU, DEPTOR / Fold change vs veh, DEPTOR / RFU, CPM / Fold change vs veh, CPM / RFU, DNAJB6 / Fold change vs veh, DNAJB6 / RFU, CACNA2D3 / Fold change vs veh, CACNA2D3 / RFU, DTX4 / Fold change vs veh, DTX4 / RFU, TFCP2 / Fold change vs veh, TFCP2 / RFU, GMCL1 /// GMCL1P1 / Fold change vs veh, GMCL1 /// GMCL1P1 / RFU, AEBP2 / Fold change vs veh, AEBP2 / RFU, SNHG1 /// SNORD22 /// SNORD25 /// SNORD26 /// SNORD27 /// SNORD28 /// SNORD29 /// SNORD31 / Fold change vs veh, SNHG1 /// SNORD22 /// SNORD25 /// SNORD26 /// SNORD27 /// SNORD28 /// SNORD29 /// SNORD31 / Fold change (Aza/veh), C12orf56 (ProbeSet 11735607_a_at) / Fold change (ACY-1035/veh), C12orf56 (ProbeSet 11735607_a_at) / Fold change (Aza/veh), FGFR1OP (ProbeSet 11751329_s_at) / Fold change (ACY-1035/veh), FGFR1OP (ProbeSet 11751329_s_at) / Fold change (Aza/veh), VPS36 (ProbeSet 11739960_a_at) / Fold change (ACY-1035/veh), VPS36 (ProbeSet 11739960_a_at) / RFU SYPL1 (11715823_x_at) / Fold change /veh SYPL1 (11715823_x_at) / RFU IGFBP7 (11715501_s_at) / Fold change /veh IGFBP7 (11715501_s_at) / RFU REEP3 (11722064_at) / Fold change /veh REEP3 (11722064_at) / RFU IGLL1 (11728026_x_at) / Fold change /veh IGLL1 (11728026_x_at): dose or concentration left out as unconfirmed.

The structures appear in SMILES notation.

As for `Nc1ncn([C@@H]2O[C@H](CO)[C@@H](O)[C@H]2O)c(=O)n1` [azacitidine], the “RFU, ZNF330” value amounted to 711.81 RFU.
